Source: patent publication US6339042B1, “Herbicidal N-cyclohexadienyl heteroaryloxyacetamides” (American Cyanamid Co., priority 1999, dated 2002)

Assays:
Lolium perenne [1] = assay: Pre-emergence herbicidal evaluation, LOLPE; type: in vivo; conditions: three weeks after treatment
Source text: (§1) The treated pots are then placed on greenhouse benches, watered and cared for in accordance with conventional greenhouse procedures.

Zea mays [2] = assay: Post-emergence herbicidal evaluation, ZEAMX; conditions: three weeks after treatment
Alopecurus myosuroides [3] = assay: Pre-emergence herbicidal evaluation, ALOMY; type: in vivo; conditions: three weeks after treatment
Source text: as §1

Echinochloa crus-galli [4] = assay: Post-emergence herbicidal evaluation, ECHCG; conditions: three weeks after treatment
Galium aparine = assay: Post-emergence herbicidal evaluation, GALAP; conditions: three weeks after treatment
Triticum aestivum [5] = assay: Pre-emergence herbicidal evaluation, TRZAW; type: in vivo; conditions: three weeks after treatment
Source text: as §1

Zea mays [6] = assay: Pre-emergence herbicidal evaluation, ZEAMX; type: in vivo; conditions: three weeks after treatment
Source text: as §1

Lolium perenne [7] = assay: Post-emergence herbicidal evaluation, LOLPE; conditions: three weeks after treatment
Procedure: (§2) Each pot is examined three weeks after treatment and phytotoxicity is assessed according to the rating system set forth below.
(§3) These acetone solutions are diluted with water and the resulting formulations applied at dosage levels equivalent of about 0.4 to 0.1 kg per hectare of test compound per pot. After spraying the plants are placed on greenhouse benches and are cared for in the usual manner, commensurate with conventional greenhouse practices.

Hordeum vulgare [8] = assay: Pre-emergence herbicidal evaluation, HORVW; type: in vivo; conditions: three weeks after treatment
Source text: as §1

Amaranthus tuberculatus [9] = assay: Post-emergence herbicidal evaluation, AMATA; type: in vivo; conditions: three weeks after treatment
Amaranthus tuberculatus [10] = assay: Pre-emergence herbicidal evaluation, AMATA; type: in vivo; conditions: three weeks after treatment
Source text: as §1

Oryza sativum [11] = assay: Pre-emergence herbicidal evaluation, ORYSA; type: in vivo; conditions: three weeks after treatment
Source text: as §1

Triticum aestivum [12] = assay: Post-emergence herbicidal evaluation, TRZAW; conditions: three weeks after treatment
Procedure: as §2, §3

Setaria viridis [13] = assay: Post-emergence herbicidal evaluation, SETVI; conditions: three weeks after treatment
Oryza sativum [14] = assay: Post-emergence herbicidal evaluation, ORYSA; conditions: three weeks after treatment
Alopecurus myosuroides [15] = assay: Post-emergence herbicidal evaluation, ALOMY; conditions: three weeks after treatment
Glycine max [16] = assay: Pre-emergence herbicidal evaluation, GLXMA; type: in vivo; conditions: three weeks after treatment
Source text: as §1

Echinochloa crus-galli [17] = assay: Pre-emergence herbicidal evaluation, ECHCG; type: in vivo; conditions: three weeks after treatment
Source text: as §1

Glycine max [18] = assay: Post-emergence herbicidal evaluation, GLXMA; conditions: three weeks after treatment
Procedure: as §2, §3

Apera spica venti [19] = assay: Post-emergence herbicidal evaluation, APESV; conditions: three weeks after treatment
Procedure: The compounds of the invention are tested for pre- and post-emergence herbicidal activity.
as §2, §3

Hordeum vulgare [20] = assay: Post-emergence herbicidal evaluation, HORVW; conditions: three weeks after treatment
Setaria viridis [21] = assay: Pre-emergence herbicidal evaluation, SETVI; type: in vivo; conditions: three weeks after treatment
Source text: as §1

Apera spica venti [22] = assay: Pre-emergence herbicidal evaluation, APESV; type: in vivo; conditions: three weeks after treatment
Source text: as §1

## CCN(C(=O)COc1nnc(C(F)(F)C(F)(F)F)s1)C1=CC(C)(C)CC(C)=C1 [Example 8]
Lolium perenne [1]; 0.100 kg/ha
  phytotoxicity rating LOLPE: 1 (1 - Trace effect)
Lolium perenne [1]; 0.200 kg/ha
  phytotoxicity rating LOLPE: 4 (4 - Injury)
Lolium perenne [1]; 0.400 kg/ha
  phytotoxicity rating LOLPE: 6 (6 - Herbicidal effect)
Lolium perenne [1]; 0.800 kg/ha
  phytotoxicity rating LOLPE: 6 (6 - Herbicidal effect)
Zea mays [2]; 0.100 kg/ha
  phytotoxicity rating ZEAMX: 0 (0 - No effect)
Zea mays [2]; 0.200 kg/ha
  phytotoxicity rating ZEAMX: 0 (0 - No effect)
Zea mays [2]; 0.400 kg/ha
  phytotoxicity rating ZEAMX: 0 (0 - No effect)
Alopecurus myosuroides [3]; 0.100 kg/ha
  phytotoxicity rating ALOMY: 1 (1 - Trace effect)
Alopecurus myosuroides [3]; 0.200 kg/ha
  phytotoxicity rating ALOMY: 4 (4 - Injury)
Alopecurus myosuroides [3]; 0.400 kg/ha
  phytotoxicity rating ALOMY: 6 (6 - Herbicidal effect)
Alopecurus myosuroides [3]; 0.800 kg/ha
  phytotoxicity rating ALOMY: 8 (8 - Approaching complete kill)
Echinochloa crus-galli [4]; 0.100 kg/ha
  phytotoxicity rating ECHCG: 0 (0 - No effect)
Echinochloa crus-galli [4]; 0.200 kg/ha
  phytotoxicity rating ECHCG: 0 (0 - No effect)
Echinochloa crus-galli [4]; 0.400 kg/ha
  phytotoxicity rating ECHCG: 0 (0 - No effect)
Galium aparine; 0.100 kg/ha
  phytotoxicity rating GALAP: 0 (0 - No effect)
Galium aparine; 0.200 kg/ha
  phytotoxicity rating GALAP: 0 (0 - No effect)
Galium aparine; 0.400 kg/ha
  phytotoxicity rating GALAP: 5 (5 - Definite injury)
Triticum aestivum [5]; 0.100 kg/ha
  phytotoxicity rating TRZAW: 0 (0 - No effect)
Triticum aestivum [5]; 0.200 kg/ha
  phytotoxicity rating TRZAW: 0 (0 - No effect)
Triticum aestivum [5]; 0.400 kg/ha
  phytotoxicity rating TRZAW: 0 (0 - No effect)
Triticum aestivum [5]; 0.800 kg/ha
  phytotoxicity rating TRZAW: 0 (0 - No effect)
Zea mays [6]; 0.100 kg/ha
  phytotoxicity rating ZEAMX: 0 (0 - No effect)
Zea mays [6]; 0.200 kg/ha
  phytotoxicity rating ZEAMX: 0 (0 - No effect)
Zea mays [6]; 0.400 kg/ha
  phytotoxicity rating ZEAMX: 0 (0 - No effect)
Zea mays [6]; 0.800 kg/ha
  phytotoxicity rating ZEAMX: 0 (0 - No effect)
Lolium perenne [7]; 0.100 kg/ha
  phytotoxicity rating LOLPE: 1 (1 - Trace effect)
Lolium perenne [7]; 0.200 kg/ha
  phytotoxicity rating LOLPE: 7 (7 - Good herbicidal effect)
Lolium perenne [7]; 0.400 kg/ha
  phytotoxicity rating LOLPE: 8 (8 - Approaching complete kill)
Hordeum vulgare [8]; 0.100 kg/ha
  phytotoxicity rating HORVW: 0 (0 - No effect)
Hordeum vulgare [8]; 0.200 kg/ha
  phytotoxicity rating HORVW: 0 (0 - No effect)
Hordeum vulgare [8]; 0.400 kg/ha
  phytotoxicity rating HORVW: 1 (1 - Trace effect)
Hordeum vulgare [8]; 0.800 kg/ha
  phytotoxicity rating HORVW: 2 (2 - Slight effect)
Amaranthus tuberculatus [9]; 0.100 kg/ha
  phytotoxicity rating AMATA: 0 (0 - No effect)
Amaranthus tuberculatus [9]; 0.200 kg/ha
  phytotoxicity rating AMATA: 0 (0 - No effect)
Amaranthus tuberculatus [9]; 0.400 kg/ha
  phytotoxicity rating AMATA: 0 (0 - No effect)
Amaranthus tuberculatus [10]; 0.100 kg/ha
  phytotoxicity rating AMATA: 0 (0 - No effect)
Amaranthus tuberculatus [10]; 0.200 kg/ha
  phytotoxicity rating AMATA: 1 (1 - Trace effect)
Amaranthus tuberculatus [10]; 0.400 kg/ha
  phytotoxicity rating AMATA: 5 (5 - Definite injury)
Amaranthus tuberculatus [10]; 0.800 kg/ha
  phytotoxicity rating AMATA: 6 (6 - Herbicidal effect)
Oryza sativum [11]; 0.100 kg/ha
  phytotoxicity rating ORYSA: 0 (0 - No effect)
Oryza sativum [11]; 0.200 kg/ha
  phytotoxicity rating ORYSA: 0 (0 - No effect)
Oryza sativum [11]; 0.400 kg/ha
  phytotoxicity rating ORYSA: 0 (0 - No effect)
Oryza sativum [11]; 0.800 kg/ha
  phytotoxicity rating ORYSA: 1 (1 - Trace effect)
Triticum aestivum [12]; 0.100 kg/ha
  phytotoxicity rating TRZAW: 0 (0 - No effect)
Triticum aestivum [12]; 0.200 kg/ha
  phytotoxicity rating TRZAW: 0 (0 - No effect)
Triticum aestivum [12]; 0.400 kg/ha
  phytotoxicity rating TRZAW: 1 (1 - Trace effect)
Setaria viridis [13]; 0.100 kg/ha
  phytotoxicity rating SETVI: 0 (0 - No effect)
Setaria viridis [13]; 0.200 kg/ha
  phytotoxicity rating SETVI: 0 (0 - No effect)
Setaria viridis [13]; 0.400 kg/ha
  phytotoxicity rating SETVI: 0 (0 - No effect)
Oryza sativum [14]; 0.100 kg/ha
  phytotoxicity rating ORYSA: 0 (0 - No effect)
Oryza sativum [14]; 0.200 kg/ha
  phytotoxicity rating ORYSA: 0 (0 - No effect)
Oryza sativum [14]; 0.400 kg/ha
  phytotoxicity rating ORYSA: 2 (2 - Slight effect)
Alopecurus myosuroides [15]; 0.100 kg/ha
  phytotoxicity rating ALOMY: 0 (0 - No effect)
Alopecurus myosuroides [15]; 0.200 kg/ha
  phytotoxicity rating ALOMY: 4 (4 - Injury)
Alopecurus myosuroides [15]; 0.400 kg/ha
  phytotoxicity rating ALOMY: 4 (4 - Injury)
Glycine max [16]; 0.100 kg/ha
  phytotoxicity rating GLXMA: 0 (0 - No effect)
Glycine max [16]; 0.200 kg/ha
  phytotoxicity rating GLXMA: 0 (0 - No effect)
Glycine max [16]; 0.400 kg/ha
  phytotoxicity rating GLXMA: 0 (0 - No effect)
Glycine max [16]; 0.800 kg/ha
  phytotoxicity rating GLXMA: 0 (0 - No effect)
Echinochloa crus-galli [17]; 0.100 kg/ha
  phytotoxicity rating ECHCG: 1 (1 - Trace effect)
Echinochloa crus-galli [17]; 0.200 kg/ha
  phytotoxicity rating ECHCG: 4 (4 - Injury)
Echinochloa crus-galli [17]; 0.400 kg/ha
  phytotoxicity rating ECHCG: 4 (4 - Injury)
Echinochloa crus-galli [17]; 0.800 kg/ha
  phytotoxicity rating ECHCG: 8 (8 - Approaching complete kill)
Glycine max [18]; 0.100 kg/ha
  phytotoxicity rating GLXMA: 2 (2 - Slight effect)
Glycine max [18]; 0.200 kg/ha
  phytotoxicity rating GLXMA: 3 (3 - Moderate effect)
Glycine max [18]; 0.400 kg/ha
  phytotoxicity rating GLXMA: 4 (4 - Injury)
Apera spica venti [19]; 0.100 kg/ha
  phytotoxicity rating APESV: 0 (0 - No effect)
Apera spica venti [19]; 0.200 kg/ha
  phytotoxicity rating APESV: 4 (4 - Injury)
Apera spica venti [19]; 0.400 kg/ha
  phytotoxicity rating APESV: 6 (6 - Herbicidal effect)
Hordeum vulgare [20]; 0.100 kg/ha
  phytotoxicity rating HORVW: 0 (0 - No effect)
Hordeum vulgare [20]; 0.200 kg/ha
  phytotoxicity rating HORVW: 0 (0 - No effect)
Hordeum vulgare [20]; 0.400 kg/ha
  phytotoxicity rating HORVW: 0 (0 - No effect)
Setaria viridis [21]; 0.100 kg/ha
  phytotoxicity rating SETVI: 1 (1 - Trace effect)
Setaria viridis [21]; 0.200 kg/ha
  phytotoxicity rating SETVI: 4 (4 - Injury)
Setaria viridis [21]; 0.400 kg/ha
  phytotoxicity rating SETVI: 4 (4 - Injury)
Setaria viridis [21]; 0.800 kg/ha
  phytotoxicity rating SETVI: 7 (7 - Good herbicidal effect)
Apera spica venti [22]; 0.100 kg/ha
  phytotoxicity rating APESV: 0 (0 - No effect)
Apera spica venti [22]; 0.200 kg/ha
  phytotoxicity rating APESV: 0 (0 - No effect)
Apera spica venti [22]; 0.400 kg/ha
  phytotoxicity rating APESV: 8 (8 - Approaching complete kill)
Apera spica venti [22]; 0.800 kg/ha
  phytotoxicity rating APESV: 9 (9 - Complete kill)
other
  melting point: 55 °C
